Reference: patent US12077503B2, “Substituted cyclic amides and their use as herbicides” (FMC CORPORATION, priority 2015, dated 2024)

Assays:
Format in all cases: in vivo
[1] = system: giant foxtail (Setaria faberii); assay: Test A preemergence; conditions: Setaria faberi, pre-emergence, 240 h, preemergence, 0 to 100 scale where 0 is no effect and 100 is complete control, read-out: Foxtail, Giant plant response rating
In short: (§1)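 Visual injury, scored on a 0–100 scale relative to untreated controls, was recorded about 10 d after application. Treatments were a preemergence soil spray over planted seeds or a postemergence spray on plants at the one- to two-leaf stage, 2 to 10 cm tall, all in loam soil–sand blend in the greenhouse.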

[2] = system: Galium (catchweed bedstraw, Galium aparine); assay: Test A postemergence; conditions: Galium, post-emergence, 240 h, postemergence
In short: as §1

Kochia (Kochia scoparia) = assay: Test A postemergence; conditions: Bassia scoparia, post-emergence, 240 h, postemergence
In short: as §1

[3] = system: barnyardgrass (Echinochloa crus-galli); assay: Test A postemergence; conditions: Echinochloa crus-galli, post-emergence, 240 h, postemergence
In short: as §1

[4] = system: blackgrass (Alopecurus myosuroides); assay: Test A postemergence; conditions: Alopecurus myosuroides, post-emergence, 240 h, postemergence
In short: as §1

corn (Zea mays) = assay: Test A postemergence; conditions: Zea mays, post-emergence, 240 h, postemergence
In short: as §1

[5] = system: giant foxtail (Setaria faberii); assay: Test A postemergence; conditions: Setaria faberi, post-emergence, 240 h, postemergence
In short: as §1

[6] = system: pigweed (Amaranthus retroflexus); assay: Test A postemergence; conditions: Amaranthus retroflexus, post-emergence, 240 h, postemergence
In short: as §1

[7] = system: ragweed (common ragweed, Ambrosia elatior); assay: Test A postemergence; conditions: Ambrosia artemisiifolia, post-emergence, 240 h, postemergence
In short: as §1

[8] = system: ryegrass, Italian (Italian ryegrass, Lolium multiflorum); assay: Test A postemergence; conditions: Lolium multiflorum, post-emergence, 240 h, postemergence
In short: as §1

[9] = system: wheat (Triticum aestivum); assay: Test A postemergence; conditions: Triticum aestivum, post-emergence, 240 h, postemergence
In short: as §1

[10] = system: barnyardgrass (Echinochloa crus-galli); assay: Test B flooded paddy test; conditions: Echinochloa crus-galli, 250 g ai/ha, Flood; 0 to 100 scale where 0 is no effect and 100 is complete control; read-out: Barnyardgrass plant response rating
In short: (§2)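 Visual ratings (0 none to 100 complete control) are relative to untreated plants, taken 13–15 d after treatment in a greenhouse. Test material went straight into floodwater standing 3 cm above the soil, kept constant, on plants at the 2-leaf stage.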

[11] = system: ducksalad (Heteranthera limosa); assay: Test B flooded paddy test; conditions: Heteranthera limosa, 250 g ai/ha, Flood; 0 to 100 scale where 0 is no effect and 100 is complete control; read-out: Ducksalad plant response rating
In short: as §2

rice (Oryra sativa) = assay: Test B flooded paddy test; conditions: Oryza sativa, 250 g ai/ha, Flood; 0 to 100 scale where 0 is no effect and 100 is complete control; read-out: Rice plant response rating
In short: as §2

[12] = system: sedge, umbrella (small-flower umbrella sedge, Cyperus difformis); assay: Test B flooded paddy test; conditions: Cyperus difformis, 250 g ai/ha, Flood; 0 to 100 scale where 0 is no effect and 100 is complete control; read-out: Sedge, Umbrella plant response rating
In short: as §2

O=C1NC[C@H](c2nccs2)[C@H]1C(=O)Nc1cccc(F)c1F [Compound 1182]
0%: pest or weed control at 125 g/ha ([1]; 125 g ai/ha, approx. 10 d) | pest or weed control at 500 g/ha ([1]; 500 g ai/ha) | pest or weed control at 125 g/ha ([2]; 125 g ai/ha, visual injury vs untreated controls after approx. 10 d, 0 = no effect, 100 = complete control, read-out: Galium plant response rating (0 to 100 scale)) | pest or weed control at 500 g/ha ([2]; 500 g ai/ha, 0 to 100 scale, 0 is no effect, 100 is complete control, read-out: Galium plant response rating) | pest or weed control at 125 g/ha (Kochia (Kochia scoparia); 125 g ai/ha, visual injury vs untreated controls after approx. 10 d, 0 = no effect, 100 = complete control, read-out: Kochia plant response rating (0 to 100 scale)) | pest or weed control at 500 g/ha (Kochia (Kochia scoparia); 500 g ai/ha, 0 to 100 scale, 0 is no effect, 100 is complete control, read-out: Kochia plant response rating) | pest or weed control at 125 g/ha ([3]; 125 g ai/ha, visual injury vs untreated controls after approx. 10 d, 0 = no effect, 100 = complete control, read-out: Barnyardgrass plant response rating (0 to 100 scale)) | pest or weed control at 500 g/ha ([3]; 500 g ai/ha, 0 to 100 scale, 0 is no effect, 100 is complete control, read-out: Barnyardgrass plant response rating) | pest or weed control at 125 g/ha ([4]; 125 g ai/ha, visual injury vs untreated controls after approx. 10 d, 0 = no effect, 100 = complete control, read-out: Blackgrass plant response rating (0 to 100 scale)) | pest or weed control at 500 g/ha ([4]; 500 g ai/ha, 0 to 100 scale, 0 is no effect, 100 is complete control, read-out: Blackgrass plant response rating) | plant injury at 125 g/ha (corn (Zea mays); 125 g ai/ha, visual injury vs untreated controls after approx. 10 d, 0 = no effect, 100 = complete control, read-out: Corn plant response rating (0 to 100 scale)) | plant injury at 500 g/ha (corn (Zea mays); 500 g ai/ha, 0 to 100 scale, 0 is no effect, 100 is complete control, read-out: Corn plant response rating) | pest or weed control at 125 g/ha ([5]; 125 g ai/ha, visual injury vs untreated controls after approx. 10 d, 0 = no effect, 100 = complete control, read-out: Foxtail, Giant plant response rating (0 to 100 scale)) | pest or weed control at 500 g/ha ([5]; 500 g ai/ha, 0 to 100 scale, 0 is no effect, 100 is complete control, read-out: Foxtail, Giant plant response rating) | pest or weed control at 125 g/ha ([6]; 125 g ai/ha, visual injury vs untreated controls after approx. 10 d, 0 = no effect, 100 = complete control, read-out: Pigweed plant response rating (0 to 100 scale)) | pest or weed control at 500 g/ha ([6]; 500 g ai/ha, 0 to 100 scale, 0 is no effect, 100 is complete control, read-out: Pigweed plant response rating) | pest or weed control at 125 g/ha ([7]; 125 g ai/ha, visual injury vs untreated controls after approx. 10 d, 0 = no effect, 100 = complete control, read-out: Ragweed plant response rating (0 to 100 scale)) | pest or weed control at 500 g/ha ([7]; 500 g ai/ha, 0 to 100 scale, 0 is no effect, 100 is complete control, read-out: Ragweed plant response rating) | pest or weed control at 125 g/ha ([8]; 125 g ai/ha, visual injury vs untreated controls after approx. 10 d, 0 = no effect, 100 = complete control, read-out: Ryegrass, Italian plant response rating (0 to 100 scale)) | pest or weed control at 500 g/ha ([8]; 500 g ai/ha, 0 to 100 scale, 0 is no effect, 100 is complete control, read-out: Ryegrass, Italian plant response rating) | plant injury at 125 g/ha ([9]; 125 g ai/ha, visual injury vs untreated controls after approx. 10 d, 0 = no effect, 100 = complete control, read-out: Wheat plant response rating (0 to 100 scale)) | plant injury at 500 g/ha ([9]; 500 g ai/ha, 0 to 100 scale, 0 is no effect, 100 is complete control, read-out: Wheat plant response rating) | pest or weed control at 250 g/ha [10] | pest or weed control at 250 g/ha [11] | pest or weed control at 250 g/ha (rice (Oryra sativa)) | pest or weed control at 250 g/ha [12]
